Laboratory results taken from patent US20230212131A1, “COLLAGEN 1 TRANSLATION INHIBITORS AND METHODS OF USE THEREOF” (Anima Biotech Inc., priority 2020, published 2023).

system: collagen 1 (COL1); test: WI-38 collagen 1 inhibition assay; type: cell-based, human; settings: Cellular EC50, WI-38 cells; values are classes of LogEC50
Summary of the method: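 WI-38 fibroblasts serum-starved (0.25% FBS 2 h, then none 24 h), then given a collagen induction cocktail together with compound. Cells fixed, immunostained for collagen I with DAPI counterstain, and imaged at 20×; per-cell fluorescence quantified by image analysis.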

**Q.** How did the “COL1 Efficacy (LogEC50)” value turn out when `O=C(Nc1nc(-c2ccccc2Cl)cs1)c1cnc(N2CCOCC2)cn1` [compound 367, N-[4-(2-chlorophenyl)thiazol-2-yl]-5-morpholino-pyrazine-2-carboxamide] was run?
**A.** The value was “+++ (+++: <−6)”.

**Q.** For `Cc1ncccc1-c1csc(NC(=O)c2ccc(N3CCOCC3)cc2)n1` [compound 369, N-[4-(2-methyl-3-pyridyl)thiazol-2-yl]-4-morpholino-benzamide], which “COL1 Efficacy (LogEC50)” value is on record?
**A.** The value was “++ (++: −5 to −6)”.

**Q.** `Cc1ncccc1-c1csc(NC(=O)c2ccc(N3CCOCC3)cn2)n1` [compound 371, N-[4-(2-methyl-3-pyridyl)thiazol-2-yl]-5-morpholino-pyridine-2-carboxamide] was tested. Which “COL1 Efficacy (LogEC50)” value did it give?
**A.** The value was “++ (++: −5 to −6)”.

**Q.** How did the “COL1 Efficacy (LogEC50)” value turn out when `Cc1ncccc1-c1csc(NC(=O)c2cnc(N3CCOCC3)cn2)n1` [compound 372, N-[4-(2-methyl-3-pyridyl)thiazol-2-yl]-5-morpholino-pyrazine-2-carboxamide] was run?
**A.** Its value is “+ (+: >−5)”.

**Q.** For `Cc1ncccc1-c1csc(NC(=O)c2ccc(N3CCOCC3)nn2)n1` [compound 373, N-[4-(2-methyl-3-pyridyl)thiazol-2-yl]-6-morpholino-pyridazine-3-carboxamide], which “COL1 Efficacy (LogEC50)” value is on record?
**A.** The value was “+ (+: >−5)”.

**Q.** How did the “COL1 Efficacy (LogEC50)” value turn out when `Cc1ncccc1-c1csc(NC(=O)c2cnc(N3CCOCC3)nc2)n1` [compound 374, N-[4-(2-methyl-3-pyridyl)thiazol-2-yl]-2-morpholino-pyrimidine-5-carboxamide] was run?
**A.** The value was “+ (+: >−5)”.

**Q.** How did the “COL1 Efficacy (LogEC50)” value turn out when `Cc1ncccc1-c1csc(NC(=O)c2ccc(N3CCOCC3)nc2)n1` [compound 375, N-[4-(2-methyl-3-pyridyl)thiazol-2-yl]-6-morpholino-pyridine-3-carboxamide] was run?
**A.** The value was “+ (+: >−5)”.

**Q.** `O=C(Nc1nc(-c2ccccc2Cl)cs1)c1ccc(C2CCS(=O)(=O)CC2)cc1` [compound 382, N-(4-(2-chlorophenyl)thiazol-2-yl)-4-(1,1-dioxidotetrahydro-2H-thiopyran-4-yl)benzamide] was tested. Which “COL1 Efficacy (LogEC50)” value did it give?
**A.** Its value is “+++ (+++: <−6)”.

**Q.** For `O=C(Nc1nc(-c2ccccc2Cl)cs1)c1ccc(C(=O)N2CCOCC2)cc1` [compound 384, N-(4-(2-chlorophenyl)thiazol-2-yl)-4-(morpholine-4-carbonyl)benzamide], which “COL1 Efficacy (LogEC50)” value is on record?
**A.** Its value is “++ (++: −5 to −6)”.

**Q.** How did the “COL1 Efficacy (LogEC50)” value turn out when `O=C(Nc1nc(-c2ccccc2Cl)cs1)c1ccc(C(=O)N2CCS(=O)(=O)CC2)cc1` [compound 385, N-(4-(2-chlorophenyl)thiazol-2-yl)-4-(1,1-dioxidothiomorpholine-4-carbonyl)benzamide] was run?
**A.** The value was “++ (++: −5 to −6)”.

**Q.** Which “COL1 Efficacy (LogEC50)” value does the source give for `CN(C)C(=O)c1ccc(C(=O)Nc2nc(-c3ccccc3Cl)cs2)cc1` [compound 389, N′-(4-(2-chlorophenyl)thiazol-2-yl)-N,N-dimethylterephthalamide] here?
**A.** Its value is “++ (++: −5 to −6)”.

**Q.** `O=C(Nc1nc(C2CCOCC2)cs1)c1ccc(N2CCOCC2)cn1` [compound 393, 5-morpholino-N-(4-(tetrahydro-2H-pyran-4-yl)thiazol-2-yl)picolinamide] was tested. Which “COL1 Efficacy (LogEC50)” value did it give?
**A.** The value was “++ (++: −5 to −6)”.

**Q.** `O=C(Nc1nc(-c2ccccc2Cl)cs1)c1ccc(N2CCOCC2)cc1F` [compound 408] was tested. Which “COL1 Efficacy (LogEC50)” value did it give?
**A.** The value was “− (−: inactive)”.

**Q.** How did the “COL1 Efficacy (LogEC50)” value turn out when `O=C(Nc1nc(-c2ccccc2Cl)cs1)C12CC(C(=O)N3CCOCC3)(C1)C2` [compound 420] was run?
**A.** Its value is “+ (+: >−5)”.

**Q.** How did the “COL1 Efficacy (LogEC50)” value turn out when `O=C(Nc1nc(-c2ccccc2Cl)cs1)[C@H]1C[C@H](N2CCOCC2)C1` [compound 422, (1r,3r)-N-(4-(2-chlorophenyl)thiazol-2-yl)-3-morpholinocyclobutane-1-carboxamide] was run?
**A.** Its value is “++ (++: −5 to −6)”.

**Q.** How did the “COL1 Efficacy (LogEC50)” value turn out when `CS(=O)(=O)N1CCN([C@H]2C[C@@H](C(=O)Nc3nc(-c4ccccc4Cl)cs3)C2)CC1` [compound 423] was run?
**A.** The value was “− (−: inactive)”.

**Q.** Which “COL1 Efficacy (LogEC50)” value does the source give for `O=C(Nc1nc(-c2ccccc2Cl)cs1)C1CC(C(=O)N2CCOCC2)C1` (centres unmarked) [compound 426] here?
**A.** Its value is “− (−: inactive)”.

**Q.** `O=C(Nc1nc(-c2ccccc2Cl)cs1)C1CC(C(=O)N2CCOCC2)C1` (centres unmarked) [compound 427] was tested. Which “COL1 Efficacy (LogEC50)” value did it give?
**A.** Its value is “− (−: inactive)”.

**Q.** With `CS(=O)(=O)N1CCN(C(=O)[C@H]2C[C@@H](C(=O)Nc3nc(-c4ccccc4Cl)cs3)C2)CC1` [compound 429] as the compound, how does the “COL1 Efficacy (LogEC50)” value read?
**A.** The value was “+ (+: >−5)”.

**Q.** How did the “COL1 Efficacy (LogEC50)” value turn out when `O=C(Nc1nc(-c2ccccc2Cl)cs1)C1CCC(N2CCOCC2)CC1` (centres unmarked) [compound 431] was run?
**A.** Its value is “− (−: inactive)”.

**Q.** For `O=C(Nc1nc(-c2ccccc2Cl)cs1)C1CCC(N2CCOCC2)CC1` (centres unmarked) [compound 432], which “COL1 Efficacy (LogEC50)” value is on record?
**A.** Its value is “− (−: inactive)”.

**Q.** For `COCc1cc(N2CCOCC2)ccc1C(=O)Nc1nc(-c2ccccc2Cl)cs1` [compound 436], which “COL1 Efficacy (LogEC50)” value is on record?
**A.** Its value is “− (−: inactive)”.

**Q.** `CN1CCN(C(=O)c2ccc(C(=O)Nc3nc(-c4ccccc4Cl)cs3)nc2)CC1` [compound 437, N-(4-(2-chlorophenyl)thiazol-2-yl)-5-(4-methylpiperazine-1-carbonyl)picolinamide] was tested. Which “COL1 Efficacy (LogEC50)” value did it give?
**A.** The value was “++ (++: −5 to −6)”.

**Q.** `CS(=O)(=O)N1CCC(Oc2ccc(C(=O)Nc3nc(-c4ccccc4Cl)cs3)nc2)CC1` [compound 438, N-(4-(2-chlorophenyl)thiazol-2-yl)-5-((1-(methylsulfonyl)piperidin-4-yl)oxy)picolinamide] was tested. Which “COL1 Efficacy (LogEC50)” value did it give?
**A.** Its value is “+++ (+++: <−6)”.

**Q.** `CN1CCC(Oc2ccc(C(=O)Nc3nc(-c4ccccc4Cl)cs3)nc2)CC1` [compound 439, N-(4-(2-chlorophenyl)thiazol-2-yl)-5-((1-methylpiperidin-4-yl)oxy)picolinamide] was tested. Which “COL1 Efficacy (LogEC50)” value did it give?
**A.** Its value is “+++ (+++: <−6)”.

**Q.** `CC(=O)N1CCC(Oc2ccc(C(=O)Nc3nc(-c4ccccc4Cl)cs3)nc2)CC1` [compound 440, 5-((1-acetylpiperidin-4-yl)oxy)-N-(4-(2-chlorophenyl)thiazol-2-yl)picolinamide] was tested. Which “COL1 Efficacy (LogEC50)” value did it give?
**A.** Its value is “+++ (+++: <−6)”.

**Q.** Which “COL1 Efficacy (LogEC50)” value does the source give for `CC(=O)N1CCN(c2ccc(C(=O)Nc3nc(-c4ccccc4Cl)cs3)nc2)CC1` [compound 442, 5-(4-acetylpiperazin-1-yl)-N-(4-(2-chlorophenyl)thiazol-2-yl)picolinamide] here?
**A.** Its value is “+++ (+++: <−6)”.

**Q.** `CC(=O)N1CC2(C1)CN(c1ccc(C(=O)Nc3nc(-c4ccccc4Cl)cs3)nc1)C2` [compound 449, 5-(6-acetyl-2,6-diazaspiro[3.3]heptan-2-yl)-N-(4-(2-chlorophenyl)thiazol-2-yl)picolinamide] was tested. Which “COL1 Efficacy (LogEC50)” value did it give?
**A.** Its value is “+++ (+++: <−6)”.

**Q.** Which “COL1 Efficacy (LogEC50)” value does the source give for `O=C(Nc1nc(-c2ccccc2Cl)cs1)c1ccc(C(=O)N2CCNCC2)cn1` [compound 451, N-(4-(2-chlorophenyl)thiazol-2-yl)-5-(piperazine-1-carbonyl)picolinamide] here?
**A.** Its value is “++ (++: −5 to −6)”.

**Q.** For `CN1CCC2(CCN(c3ccc(C(=O)Nc4nc(-c5ccccc5Cl)cs4)nc3)CC2)C1=O` [compound 452, N-(4-(2-chlorophenyl)thiazol-2-yl)-5-(2-methyl-1-oxo-2,8-diazaspiro[4.5]decan-8-yl)picolinamide], which “COL1 Efficacy (LogEC50)” value is on record?
**A.** The value was “+++ (+++: <−6)”.

**Q.** For `CN1CC2(CCN(c3ccc(C(=O)Nc4nc(-c5ccccc5Cl)cs4)nc3)CC2)C1` [compound 456, N-(4-(2-chlorophenyl)thiazol-2-yl)-5-(2-methyl-2,7-diazaspiro[3.5]nonan-7-yl)picolinamide], which “COL1 Efficacy (LogEC50)” value is on record?
**A.** The value was “+++ (+++: <−6)”.

**Q.** With `CNCc1ccccc1-c1csc(NC(=O)c2ccc(N3CCN(S(C)(=O)=O)CC3)cn2)n1` [compound 457] as the compound, how does the “COL1 Efficacy (LogEC50)” value read?
**A.** Its value is “− (−: inactive)”.

**Q.** Which “COL1 Efficacy (LogEC50)” value does the source give for `CC(=O)N1CCN(c2cnc(C(=O)Nc3nc(-c4ccccc4Cl)cs3)c(C)c2)CC1` [compound 458, 5-(4-acetylpiperazin-1-yl)-N-(4-(2-chlorophenyl)thiazol-2-yl)-3-methylpicolinamide] here?
**A.** Its value is “+++ (+++: <−6)”.

**Q.** With `CN1CC2(C1)CN(c1ccc(C(=O)Nc3nc(-c4ccccc4Cl)cs3)nc1)C2` [compound 459] as the compound, how does the “COL1 Efficacy (LogEC50)” value read?
**A.** Its value is “− (−: inactive)”.

**Q.** How did the “COL1 Efficacy (LogEC50)” value turn out when `O=C(Nc1nc(-c2ccccc2Cl)cs1)c1ccc(N2CCN3CCCC3C2)cn1` (centres unmarked) [compound 461, N-(4-(2-chlorophenyl)thiazol-2-yl)-5-(hexahydropyrrolo[1,2-a]pyrazin-2(1H)-yl)picolinamide] was run?
**A.** The value was “+++ (+++: <−6)”.

**Q.** Which “COL1 Efficacy (LogEC50)” value does the source give for `C[C@H]1COCCN1c1ccc(C(=O)Nc2nc(-c3ccccc3Cl)cs2)nc1` [compound 464, (S)—N-(4-(2-chlorophenyl)thiazol-2-yl)-5-(3-methylmorpholino)picolinamide] here?
**A.** Its value is “+++ (+++: <−6)”.

**Q.** Which “COL1 Efficacy (LogEC50)” value does the source give for `O=C(Nc1nc(-c2ccccc2Cl)cs1)c1ccc(N2CCCC2=O)cn1` [compound 465] here?
**A.** The value was “− (−: inactive)”.

**Q.** How did the “COL1 Efficacy (LogEC50)” value turn out when `COCc1ccccc1-c1csc(NC(=O)c2ccc(N3CCN(C(C)=O)CC3)cn2)n1` [compound 469, 5-(4-acetylpiperazin-1-yl)-N-(4-(2-(methoxymethyl)phenyl)thiazol-2-yl)picolinamide] was run?
**A.** The value was “+++ (+++: <−6)”.

**Q.** How did the “COL1 Efficacy (LogEC50)” value turn out when `CC(=O)N1CCN(c2ccc(C(=O)Nc3nc(-c4ccccc4CO)cs3)nc2)CC1` [compound 470, 5-(4-acetylpiperazin-1-yl)-N-(4-(2-(hydroxymethyl)phenyl)thiazol-2-yl)picolinamide] was run?
**A.** Its value is “+++ (+++: <−6)”.

**Q.** `COCc1ncccc1-c1csc(NC(=O)c2ccc(N3CCN(C(C)=O)CC3)cn2)n1` [compound 471, 5-(4-acetylpiperazin-1-yl)-N-(4-(2-(methoxymethyl)pyridin-3-yl)thiazol-2-yl)picolinamide] was tested. Which “COL1 Efficacy (LogEC50)” value did it give?
**A.** The value was “+++ (+++: <−6)”.

**Q.** How did the “COL1 Efficacy (LogEC50)” value turn out when `CC(=O)N1CCN(c2ccc(C(=O)Nc3nc(-c4cccnc4CO)cs3)nc2)CC1` [compound 472, 5-(4-acetylpiperazin-1-yl)-N-(4-(2-(hydroxymethyl)pyridin-3-yl)thiazol-2-yl)picolinamide] was run?
**A.** The value was “++ (++: −5 to −6)”.

**Q.** `CC(=O)N1CCN(c2ccc(C(=O)Nc3nc(-c4ccccc4Cl)cs3)c(C)c2)CC1` [compound 473, 4-(4-acetylpiperazin-1-yl)-N-(4-(2-chlorophenyl)thiazol-2-yl)-2-methylbenzamide] was tested. Which “COL1 Efficacy (LogEC50)” value did it give?
**A.** Its value is “+++ (+++: <−6)”.

**Q.** How did the “COL1 Efficacy (LogEC50)” value turn out when `CC(=O)N1CCN(c2cc(C)c(C(=O)Nc3nc(-c4ccccc4Cl)cs3)c(C)c2)CC1` [compound 474] was run?
**A.** The value was “− (−: inactive)”.

**Q.** With `NC1CCN(c2ccc(C(=O)Nc3nc(-c4ccccc4Cl)cs3)nc2)CC1` [compound 475, 5-(4-aminopiperidin-1-yl)-N-(4-(2-chlorophenyl)thiazol-2-yl)picolinamide] as the compound, how does the “COL1 Efficacy (LogEC50)” value read?
**A.** The value was “+++ (+++: <−6)”.
